Read-outs that look alike come from different tables or passages of the source. Each block holds one compound with its values, some of them ahead of it.
Key:
[1] = Pharmacokinetic / brain penetration studies in mice; type: in vivo
Method: Pharmacokinetic studies were performed on male CD-1 mice aged 8-10 weeks. Mice were dosed as indicated in duplicates. At the time points, whole blood was obtained by retro-orbital bleeding and brain tissue was harvested. Blood samples were centrifuged to obtain plasma and brain tissue was washed and homogenized. Samples were extracted with acetonitrile and supernatant was dried using a speed-vac. Dried samples were solubilized in 50:50:0.1 acetonitrile:water:formic acid and quantified on an Agilent 6400 series Triple Quadrupole LC/MS.
Disclosed in table 5 Brain to plasma percentages and unbound ratios of drugs in brain to plasma of indicated drugs in non-tumor bearing mice

HK301 = test: GI50 assay (Cell Titer Glo proliferation, 3 days); type: cell-based, human; details: Homo sapiens, 72 h
[2] = system: patient-derived GBM gliomaspheres; test: 18F-FDG uptake assay; type: cell-based, human; details: 4 hours
Method: Cells were plated at 5×10^4 cells/ml and treated with designated drugs for indicated time points. Following appropriate treatment, cells were collected and resuspended in glucose-free DMEM/F12 (USBiological) containing ^18F-FDG (radioactivity 1 μCi/mL). Cells were incubated at 37° C. for 1 hr and then washed three times with ice cold PBS. Radioactivity of each sample was then measured using a gamma counter.

[3] = system: patient-derived GBM gliomaspheres; test: Annexin V apoptosis assay; type: cell-based, human; details: for apoptosis (annexin V staining): 72 hours of erlotinib exposure, 1 μM
Method: Cells were collected and analyzed for Annexin V and PI staining according to manufacturer's protocol (BD Biosciences). Briefly, cells were plated at 5×10^4 cells/ml and treated with appropriate drugs. Following indicated time points, cells were collected, trypsinized, washed with PBS, and stained with Annexin V and PI for 15 minutes. Samples were then analyzed using the BD LSRII flow cytometer.
Annexin V staining was measured following 72 hrs of treatment. Using the Chalice software, the response of the combination was compared to its single agents. The combinatorial effects were calculated using the synergy score.

[4] = system: BIM, PUMA; PI3K-AKT-mTOR signaling; test: Immunoblotting; type: cell-based, human
Method: Cells were collected and lysed in RIPA buffer (Boston BioProducts) containing Halt Protease and Phosphatase Inhibitor (Thermo Fischer Scientific). Lysates were centrifuged at 14,000×g for 15 min at 4° C. […] Membranes were developed using the SuperSignal system (Thermo Fischer Scientific).

[5] = system: GBM39 and HK393 intracranial xenografts; test: Intracranial delayed 18F-FDG PET/CT mouse imaging; type: in vivo, mice
Method: Following 1 hr unconscious uptake, mice were taken off anesthesia but kept warm for another 5 hr of uptake. 6 hr after the initial administration of ^18F-FDG, mice were imaged using G8 PET/CT scanner (Sofie Biosciences). Per above, quantification was performed by drawing 3D regions of interest (ROI) using the AMIDE software.

[6] = cited from earlier work
gliomas = details: cited from earlier work
[7] = Protein binding (fraction unbound in blood and brain)
[8] = Idasanutlin brain and plasma concentrations by mass spectrometry; type: in vivo; details: male, CD-1, mouse, mice with an intact blood-brain-barrier, 50 mg/kg oral gavage
Method: Male CD-1 mice (6-8 weeks old) were treated with 50 mg/kg Idasanutlin in duplicate through oral gavage. At 0.5, 1, 2, 4, 6, 8, 12, and 24 hr after administration, mice were sacrificed, blood was harvested by retro-orbital bleeding, and brain tissue was collected. Whole blood from mice was centrifuged to isolate plasma. Idasanutlin was isolated by liquid-liquid extraction from plasma: 50 μL plasma was added to 2 μL internal standard and 100 μL acetonitrile. Mouse brain tissue was washed with 2 mL cold PBS and homogenized using a tissue homogenizer with fresh 2 mL cold PBS. Idasanutlin was then isolated and reconstituted in a similar manner by liquid-liquid extraction: 100 μL brain homogenate was added to 2 μL internal standard and 200 μL acetonitrile. After vortex mixing, the samples was centrifuged. The supernatant was removed and evaporated by a rotary evaporator and reconstituted in 100 μL 50:50 water: acetonitrile.
Chromatographic separations were performed on a 100×2.1 mm Phenomenex Kinetex C18 column (Kinetex) using the 1290 Infinity LC system (Agilent). The mobile phase was composed of solvent A: 0.1% formic acid in Milli-Q water, and B: 0.1% formic acid in acetonitrile. […] Analyte signal was normalized to the internal standard and concentrations were determined by comparison to the calibration curve (0.5, 5, 50, 250, 500, 2000 nM). […]

p53 = test: Immunohistochemistry of p53 in orthotopic tumor-bearing mice; type: in vivo; details: 50 mg/kg, 36 hours
Method: Immunohistochemistry was performed on 4 μm sections that were cut from FFPE (formalin-fixed, paraffin-embedded) blocks. Sections were then deparaffinised with xylene and rehydrated through graded ethanol. […] Tissue sections were then treated with 3% hydrogen peroxide (LOT 161509; Fisher Chemical) and with Background Sniper (Biocare Medical, Concord, Calif., USA) to reduce nonspecific background staining. Primary antibody for p53 (Cell Signaling, 2527) was applied in a 1:150 dilution for 80 min followed by detection with the MACH 3 Rabbit HRP-Polymer Detection kit (Biocare Medical). Visualization was achieved using VECTOR NovaRED (SK-4800; Vector Laboratories, Inc.) as chromogen. Lastly, sections were counterstained with Tacha's Automated Hematoxylin (Biocare Medical).

EGFR = target: T1, EGFR (Homo sapiens, UniProt P00533); test: Cell Free EGFR Kinase Assay (ADP-Glo); type: biochemical; details: FIG. 3
T1 construct: purchased Promega V3831
T1 sequence (P00533 25-1210): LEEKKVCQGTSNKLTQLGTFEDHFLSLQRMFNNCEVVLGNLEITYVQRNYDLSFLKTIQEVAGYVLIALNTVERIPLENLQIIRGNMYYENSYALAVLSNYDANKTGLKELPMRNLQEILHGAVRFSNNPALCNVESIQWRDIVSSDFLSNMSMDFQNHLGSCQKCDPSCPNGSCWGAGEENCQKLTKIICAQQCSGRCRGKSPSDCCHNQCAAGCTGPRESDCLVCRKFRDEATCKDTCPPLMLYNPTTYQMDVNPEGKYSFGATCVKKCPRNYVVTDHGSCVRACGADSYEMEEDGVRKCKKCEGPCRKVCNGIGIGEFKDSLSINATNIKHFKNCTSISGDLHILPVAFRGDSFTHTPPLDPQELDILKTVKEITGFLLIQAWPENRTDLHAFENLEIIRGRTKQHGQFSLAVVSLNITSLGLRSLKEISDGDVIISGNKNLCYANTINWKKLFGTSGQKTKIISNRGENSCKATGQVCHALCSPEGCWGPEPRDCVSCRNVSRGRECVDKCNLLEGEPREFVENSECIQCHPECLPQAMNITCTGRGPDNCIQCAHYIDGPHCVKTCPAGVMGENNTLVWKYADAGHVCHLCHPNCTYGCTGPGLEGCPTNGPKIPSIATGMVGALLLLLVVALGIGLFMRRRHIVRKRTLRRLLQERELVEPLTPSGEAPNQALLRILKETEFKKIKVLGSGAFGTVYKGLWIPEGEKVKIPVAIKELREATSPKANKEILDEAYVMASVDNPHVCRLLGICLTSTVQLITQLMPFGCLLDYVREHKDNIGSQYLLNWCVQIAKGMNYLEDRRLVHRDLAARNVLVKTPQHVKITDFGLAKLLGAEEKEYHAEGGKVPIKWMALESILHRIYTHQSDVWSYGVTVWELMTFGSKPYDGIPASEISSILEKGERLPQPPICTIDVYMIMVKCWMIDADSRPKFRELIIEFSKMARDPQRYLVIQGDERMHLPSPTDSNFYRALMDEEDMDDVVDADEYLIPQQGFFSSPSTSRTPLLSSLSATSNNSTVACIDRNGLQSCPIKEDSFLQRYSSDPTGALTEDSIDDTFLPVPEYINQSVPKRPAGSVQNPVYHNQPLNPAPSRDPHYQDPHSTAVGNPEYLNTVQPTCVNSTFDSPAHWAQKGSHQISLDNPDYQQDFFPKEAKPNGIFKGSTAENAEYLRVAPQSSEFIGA
Method: The Cell Free EGFR Kinase Assay was performed using the EGFR Kinase System (Promega #V3831). […] The ADP-Glo Kinase Assay (Promega #V6930) was used to measure EGFR activity in the presence of inhibitors.

GBM39 = test: GI50 assay (Cell Titer Glo proliferation, 3 days); type: cell-based, human; details: Homo sapiens, 72 h; GBM39, 3 days
[9] = system: patient-derived GBM gliomaspheres; test: Dynamic BH3 profiling (apoptotic priming, cytochrome c release); type: cell-based, human; details: HK393 and HK254 (EGFRi non-responders), 24 hours
Method: GBM gliomaspheres were first disassociated to single-cell suspensions with TrypLE (Gibco) and resuspended in MEB buffer (150 mM Mannitol 10 mM HEPES-KOH, 50 mM KCl, 0.02 mM EGTA, 0.02 mM EDTA, 0.1% BSA, 5 mM Succinate). 50 μl of cell suspension (3×10^4 cells/well) were plated in wells holding 50 μL MEB buffer containing 0.002% digitonin and indicated peptides in 96-well plates. Plates were then incubated at 25° C. for 50 min. […] Samples were stained overnight with 20 μL of staining solution (10% BSA, 2% Tween 20 in PBS) containing DAPI and anti-cytochrome c (BioLegend). The following day, cytochrome c release was quantified using BD LSRII flow cytometer. […] Delta priming refers to the difference in amount of cytochrome c release between vehicle treated cells and drug treated cells.

[10] = male, CD-1, mouse, Table 4, unbound partition coefficient of the brain and plasma, at equilibrium
[11] = higher dose: Erlotinib 1500 (weekly), Gefitinib 750-1000

Structure (SMILES): COc1cc(C(=O)O)ccc1NC(=O)[C@@H]1N[C@@H](CC(C)(C)C)[C@](C#N)(c2ccc(Cl)cc2F)[C@H]1c1cccc(Cl)c1F [Idasanutlin]
Kp [8]: 0.35 | p53 stabilization in tumor (p53): stabilizes p53

Structure (SMILES): Fc1c(Cl)cccc1Nc1ncnc2cc3c(cc12)OCCO3 [JGK010]
IC50 (EGFR): ~8 nM | GI50 (HK301; HK301, 3 days, read-out: HK301 GI50): 780 nM | GI50 (GBM39): 2590 nM | Kp ([1]; male, CD-1, mouse, brain / plasma, non-tumor bearing mice): 1.06 | Kp uu [1, 10]: 1.04 | Bound (blood) ([7]; blood): 98.88% | fraction unbound ([7]; blood, Fu (blood)): 0.0112 | Bound (brain) ([7]; brain): 98.90% | fraction unbound ([7]; brain, Fu (brain)): 0.011

Structure (SMILES): CS(=O)(=O)N1CCN(Cc2cc3nc(-c4cccc5[nH]ncc45)nc(N4CCOCC4)c3s2)CC1 [pictilisib]
18F-FDG uptake ([2]; HK393 and HK254 (EGFRi non-responders), pictilisib 1 μM): significantly reduced | lethality in combination with nutlin [3]: significant, p53-dependent synergistic lethality | apoptotic priming [9]: significantly higher apoptotic priming | PI3K-AKT-mTOR signaling ([4]; HK254 and HK393, 4 hours): abrogated PI3K-AKT-mTOR signaling

More lines, main results first:

Kp uu [1, 10]: 0.802 | fraction unbound (in vitro; Fu (blood)): 0.052 | fraction unbound (in vitro; Fu (brain)): 0.0144
Structure (SMILES): COc1cc2ncnc(Nc3cccc(Cl)c3F)c2cc1OC(=O)N1CCN(C)C[C@H]1C [AZD3759]

Kpuu (Avg) ([1]; Table 4, unbound partition coefficient of the brain and plasma, at equilibrium): 0.0513 | Kpuu (Avg) ([1]; Table 5, unbound ratios of drugs in brain to plasma, non-tumor bearing mice): 0.051 | Bound (blood) ([7]; blood): 95.12% | fraction unbound ([7]; blood, Fu (blood)): 0.0488 | Bound (brain) ([7]; brain): 97.07% | fraction unbound ([7]; brain, Fu (brain)): 0.0293
Structure (SMILES): C#Cc1cccc(Nc2ncnc3cc(OCCOC)c(OCCOC)cc23)c1 [Erlotinib, erlotinib]
GI50 (HK301; read-out: HK301 GI50 (nM)): 642 nM | radio-labeled glucose uptake (18F-FDG) ([2]; metabolic responder GBMs, erlotinib 1 μM): significantly attenuated | apoptosis (annexin V staining) ([3]; metabolic responders): ~17% | apoptosis (annexin V staining) ([3]; non-responders): ~3% | expression of pro-apoptotic BH3-only proteins BIM and PUMA ([4]; only in the metabolic responder cultures, acute erlotinib treatment): promoted the expression | 18F-FDG uptake (PET) ([5]; GBM39 orthotopic xenografts, erlotinib 75 mg/kg, 15 hours post administration): rapidly reduced | 18F-FDG uptake (PET) ([5]; HK393 orthotopic xenografts (non-metabolic responder), acute EGFRi): no changes | CSF ([6]; Daily Dose: Afatinib 50, Alectinib 1200, Crizotinib 500, Erlotinib 150, Gefitinib 250, Lapatinib 1250): 28.7 ± 16.8 ng/mL | Plasma ([6]; Daily Dose: Afatinib 50, Crizotinib 500, Erlotinib 150, Gefitinib 250, Lapatinib 1250): 1140 ± 937 ng/mL | CSF [6, 11]: 51.1 ng/mL | Plasma [6, 11]: 4445.9 ng/mL | response rates against gliomas (gliomas): ≤ 25%
